What was measured:
[1] = test system: HT1376, HTB-9, N87 and OVCAR-3 cell lines; experiment: Cell viability in urinary bladder, gastric and ovarian cancer cell lines; type: cell-based; details: HT1376, HTB-9, N87, OVCAR-3; FIGS. 9-10
Description: (§1) MIA PaCa-2, […], LS180, HT1376, HT29, H358, H1299, OVCAR-3, HTB-9 and Panc 10.05 cells were obtained from ATCC (Rockville, MD). MiaPaCa cells were cultured in DMEM medium supplemented with 10% FBS. H358, H1299, HTB-9, N87 and Panc 10.05 cells were cultured in DMEM/10% FBS; LS180 and HT1376 in EMEM/10% FBS; HT29 cells in McCoy5A/10% FBS; OVCAR-3 cells were incubated in RPMI/20% FBS. All cells were maintained at 37 degrees C. in an atmosphere containing 5% CO^2.
(§2) The day before transfection, cells were seeded in a 384-well plate at an optimal density of between 300 and 800 cells/well. […]
(§3) Ninety-six hours following the addition of GEM or transfection mixtures, the number of viable cells was determined with CellTiter-Glo®-2.0 reagent (Promega, Madison, WI) by measuring luminescent signal using a Cytation 5 plate reader (BioTek Inc, Winooski, VT). […]
Using the same or similar experimental condition as are described above in Example 1, the effects of PGN7 (SEQ. ID No. 9-10), Wee1 (SEQ. ID No. 13), BCLxL #5 (SEQ. ID No. 14) or the PGN7+Wee1, or PGN+BCLxL combinations were evaluated and are shown in HT1376 (400 cells/well) and HTB-9 (800 cells/well) urinary bladder cancer cell lines, N87 (600 cells/well) gastric cancer cell line, and OVCAR-3 (800 cells/well) ovarian cancer line in FIGS. 11 (a)-(d). […]

[2] = test system: pancreatic, lung and colon cancer cell lines; experiment: Cell viability in pancreatic, lung and colon cancer cell lines; type: cell-based; details: single siRNA against non-silencing control; pancreatic, lung, colon; FIG. 6
Description: as §1
(§4) The day before transfection, cells were seeded in a 384-well plate at an optimal density of between 300 and 800 cells/well. The next day, ten 3-fold serial dilutions of single, modified-backbone siRNAs or PGN6/PGN7 siRNA and Gemcitabine (GEM) mixed with siRNAs: Wee1 #7, KRAS #1, MCL1 #3 or DM2-P47 siRNAs at 1:1 ratio were prepared and combined with diluted Lipofectamine RNAiMAX (Life Technologies, Carlsbad, CA). Within 20 minutes, 10 μl of the transfection mixtures were added to the cells in a 40 μL medium. The final concentrations of siRNAs or Gemcitabine in the wells ranged from 100 nM to 0.002 nM.
(§5) Ninety-six hours following the addition of GEM or transfection mixtures, the number of viable cells was determined with CellTiter-Glo®-2.0 reagent (Promega, Madison, WI) by measuring luminescent signal using a Cytation 5 plate reader (BioTek Inc, Winooski, VT). The treatment group (n=4) mean (±SD) was compared to those of non-treated controls and were reported as relative cell viability.
Using the same experimental conditions as are described above in Example 1, the efficacy on cell viability was evaluated for PGN6 (SEQ. ID Nos. 7-8), with and without lipofentamine (“lipo”) in three types of cancer cell lines. FIG. 3 (a)-(c) show the effects of PGN6, with and without lipo on cell viability at increasing siRNA levels in pancreatic cancer cell lines. FIG. 4 (a)-(b) similarly show the effects of these variants on cell viability in lung cancer cell lines; FIG. 5 (a)-(b) show the effects of these variants on cell viability in colon cancer cell lines. All data are shown as mean±SD. […]
Using the same experimental conditions as are described above in Example 1, the efficacy of STD1 (SEQ. ID Nos. 1-2), PGN6 (SEQ. ID Nos. 7-8) and PGN7 (SEQ. ID Nos. 9-10) were evaluated in three types of cancer cell lines. […]
Using the same experimental conditions as are described above in Example 1, the efficacy of PGN7 (SEQ. ID No. 9-10) alone and its combination with WEE1 #7 (SEQ. ID No. 13) was evaluated in three types of cancer cell lines. […]
Using the same experimental conditions as are described above in Example 1, the efficacy of PGN7 (SEQ. ID No. 9-10) and the combination of BCLxL #5 (SEQ. ID No. 14) and PGN7 was evaluated in three types of cancer cell lines. […]

MiaPaCa-2 cells = experiment: Cell viability (CellTiter-Glo) in MiaPaCa-2 pancreatic cancer cells after transfection; type: cell-based, human; details: in combination with lipofectamine; 96 h; n=4 (FIG. 2); read-out: IC50, MiaPaCa-2 cell viability
Description: as §1, §4, §5

MDA-MB231 cells = experiment: Cell viability in triple negative breast cancer cell line MDA-MB231; type: cell-based; details: MDA-MB231, 400 cells per well; FIG. 13(a)
Description: as §1, §2, §3
(§6) Using the same or similar experimental condition as are described above in Example 1, the effects of (i) PGN7 (SEQ. ID No. 9-10) plus a non-signaling oligonucleotide (“NS”), (ii) BCLxL #5 (SEQ. ID No. 14)+NS, and (iii) PGN7 and BCLxL #5 in combination were evaluated and are shown in triple negative breast cancer (MDA-MB231) and ovarian cancer (OVCAR3) cell lines in FIGS. 13 (a)-(b). […]

OVCAR3 cells = experiment: Cell viability in ovarian cancer cell line OVCAR3; type: cell-based; details: OVCAR3, 800 cells per well; FIG. 13(b)
Description: as §1, §2, §3, §6

“PGN7: modified siRNA-GEM RNAi agent (SEQ. ID No. 9-10): sense 5′-AAGAAAgAgau[GEM]uGuAu[GEM]AAu-3′; antisense 5′-AuUGAuACAGAuCuCuUuCuU[GEM][GEM]dTdT-3′ (sense AAGAAAGAGATCTGTATCAAT; antisense ATTGATACAGATCTCTTTCTTCCTT; GEM modifications; 2'-modified bases; dTdT overhang; modified_base 1 OTHER; 2'-O-methyl modified nucleotide; modified_base 2 OTHER; modified_base 3 OTHER; modified_base 4 OTHER; modified_base 5 OTHER; modified_base 6 OTHER; modified_base 7 OTHER; 2'-fluoro modified nucleotide; modified_b; 2'-O-me)” was tested, and the “efficacy on cell viability” value [1] was “significant efficacy”, the “reduction of cell viability” value [2] was “effective in reducing cell viability” and the IC50 (MiaPaCa-2 cells) was 6 pM. For the same substance, the IC50 (MDA-MB231 cells) was 1100 pM and the IC50 (OVCAR3 cells) was 500 pM.

— patent publication US20250027086A1, “COMPOSITIONS AND METHODS FOR TREATMENT OF CANCERS USING MODIFIED siRNA-GEM AGENTS” (Sirnaomics, Inc., priority 2022, published 2025)
